Data taken from PMC7913925, “Design and Evaluation of a Polypeptide That Mimics the Integrin Binding Site for EDA Fibronectin to Block Profibrotic Cell Activity” (International Journal of Molecular Sciences, 2021).
Bridges are numbered along the chain shown (N, C = ends). Where no end group is shown, it is not given here.

Experiments:
pro-MMP9 = assay: Gelatinase zymography pro-MMP9; assay type: cell-based, mouse; conditions: 48 h, TGF-β1 10 ng/mL, AF38Pep 10 µg/mL, conditioned medium
Experimental: Conditioned media were collected from cells incubated with serum-free medium (SFM) alone, SFM containing 10 ng/mL TGF-β1, SFM containing 10 µg/mL AF38Pep, or SFM containing both 10 ng/mL TGF-β1 and 10 µg/mL AF38Pep. Conditioned medium was concentrated 10× by filtrating spin columns (Amicon Ultra-4 10 kDa MWCO, Merck Millipore) and protein was quantified by Micro BCA Protein Assay Kit (Thermo Fisher Scientific). A 1.5 mm thick 10% nonreducing acrylamide gel containing gelatin was prepared and 10 µg of sample in 5 × nonreducing buffer was loaded into the gel lanes. The gel was run at 100 V until the protein entered the stacking gel layer, then the voltage was increased to 150 V until the marker achieved resolved band separation. The gels were then washed twice for 30 min using wash buffer to remove SDS and renature the enzymes. Gels were further rinsed for 5–10 min in incubation buffer at 37 °C with agitation to activate the gelatinase reaction. Fresh incubation buffer was added, and the gels were incubated overnight at 37 °C. Gels were stained with staining solution containing Coomassie blue for between 30 min to 1 h, before rinsing with ddH2O and subsequent incubation with de-stain solution until bands could be observed. The gels were transferred to 2% acetic acid and rehydrated overnight for imaging by scanner.

[1] = target: FN-EDA (peptide sharing sequence with the C-C′ loop of EDA-FN) (Homo sapiens, UniProt P02751); assay: Isothermal calorimetry, AF38Pep with FN-EDA; assay type: binding; conditions: 25 °C, pH 7
Experimental: Custom designed peptides were resuspended in sterile-filtered HEPES buffered saline (140 mM NaCl, 1.5 mM Na2HPO4, 50 mM HEPES; pH 7). The larger EDA-FN binding peptide was diluted to 15 µM, degassed and added to the calorimetry chamber well. Three smaller test peptides (fibronectin EDA-peptide, FN-EDA; fibronectin RGD-peptide, FN-RGD and collagen I RGD-peptide, COL-RGD) were diluted to 300 µM, degassed and each was separately loaded into the calorimetry injection needle. The chamber well temperature was kept consistent at 25 °C. Blank buffer was used to replace either the well peptide or the injection needle peptide to account for background heat generation. Isothermal titration calorimetry was performed using a MicroCal iTC200 (Malvern Panalytical, Malvern, UK) and dissociation constant (KD) and association constant (KA) were calculated using the one set of sites model fitting (with number of binding sites assumed to be 1) in MicroCal Origin Software v8.5 (Malvern Panalytical).

- pro-MMP9 gelatinase activity (pro-MMP9): suppressed activity levels
Sequence: VMPYISTTPAKPCTSENCGNSWYGGFKSKNENKIYFIN (disulfide 13-18 (inferred)) [AF38Pep]
- ITC interaction (thermogram) [1]: there was a detectable interaction between AF38Pep and FN-EDA
